Columns and labels:
MDCK = MDCK permeability assay
κ (KOP) [1] = biological target: T1, κ (KOP) (Rattus norvegicus, UniProt P34975); test: Cellular functional assay, antagonist effect, κ (KOP); assay type: cell-based
CYP1A2 = biological target: T2, CYP1A2 (Homo sapiens, UniProt P05177); test: CYP inhibition, CYP1A2
T2 sequence (P05177 1-516): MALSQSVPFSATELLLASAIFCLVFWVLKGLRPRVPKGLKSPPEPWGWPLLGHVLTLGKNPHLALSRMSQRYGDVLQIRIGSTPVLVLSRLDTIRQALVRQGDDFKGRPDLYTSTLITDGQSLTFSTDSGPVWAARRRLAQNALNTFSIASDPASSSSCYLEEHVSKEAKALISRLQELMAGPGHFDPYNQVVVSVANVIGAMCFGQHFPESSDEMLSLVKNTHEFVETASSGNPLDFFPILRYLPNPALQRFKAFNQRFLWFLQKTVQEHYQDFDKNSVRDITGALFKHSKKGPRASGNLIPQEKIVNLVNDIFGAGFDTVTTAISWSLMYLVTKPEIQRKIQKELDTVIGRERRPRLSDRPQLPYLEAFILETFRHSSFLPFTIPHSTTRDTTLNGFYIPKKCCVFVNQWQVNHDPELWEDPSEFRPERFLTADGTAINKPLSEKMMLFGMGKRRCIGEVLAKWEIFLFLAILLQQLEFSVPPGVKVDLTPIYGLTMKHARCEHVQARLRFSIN

CYP2D6 = CYP2D6 (Homo sapiens, UniProt P10635); test: CYP inhibition, CYP2D6
CYP2D6, sequence (P10635 whole entry): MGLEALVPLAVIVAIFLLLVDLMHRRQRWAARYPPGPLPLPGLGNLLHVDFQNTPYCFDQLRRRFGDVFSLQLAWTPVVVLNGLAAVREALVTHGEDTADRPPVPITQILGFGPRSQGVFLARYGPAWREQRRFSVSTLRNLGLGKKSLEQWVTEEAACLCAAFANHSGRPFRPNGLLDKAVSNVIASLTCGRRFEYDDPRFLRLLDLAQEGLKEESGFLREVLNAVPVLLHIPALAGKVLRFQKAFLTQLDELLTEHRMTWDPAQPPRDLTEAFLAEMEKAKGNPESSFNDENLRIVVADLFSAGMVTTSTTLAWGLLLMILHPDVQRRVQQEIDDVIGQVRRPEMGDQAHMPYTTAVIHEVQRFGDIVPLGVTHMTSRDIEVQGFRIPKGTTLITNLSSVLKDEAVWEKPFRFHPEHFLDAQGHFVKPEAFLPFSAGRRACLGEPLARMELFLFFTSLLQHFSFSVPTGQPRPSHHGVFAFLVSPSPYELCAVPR

TA 100 = test: AMES testing, strain TA 100; assay type: cell-based; settings: TA 100, up to 1 mg/mL, absence and presence of S9 metabolic activation
Description: (§1) Compound HCV-3 was negative for genotoxicity against both strains used in this assay (TA98 and TA 100) up to a maximum tested concentration of 1 mg/mL, in both the absence and presence of S9 metabolic activation. The assay controls behaved as expected.

TA98 = test: AMES testing, strain TA98; assay type: cell-based; settings: TA98, up to 1 mg/mL, absence and presence of S9 metabolic activation
Description: as §1

μ (MOP) [2] = biological target: T3, μ (MOP) (Homo sapiens, UniProt P35372); test: Cellular functional assay, agonist effect, μ (MOP); assay type: cell-based; settings: agonist mode
T3 sequence (P35372 whole entry): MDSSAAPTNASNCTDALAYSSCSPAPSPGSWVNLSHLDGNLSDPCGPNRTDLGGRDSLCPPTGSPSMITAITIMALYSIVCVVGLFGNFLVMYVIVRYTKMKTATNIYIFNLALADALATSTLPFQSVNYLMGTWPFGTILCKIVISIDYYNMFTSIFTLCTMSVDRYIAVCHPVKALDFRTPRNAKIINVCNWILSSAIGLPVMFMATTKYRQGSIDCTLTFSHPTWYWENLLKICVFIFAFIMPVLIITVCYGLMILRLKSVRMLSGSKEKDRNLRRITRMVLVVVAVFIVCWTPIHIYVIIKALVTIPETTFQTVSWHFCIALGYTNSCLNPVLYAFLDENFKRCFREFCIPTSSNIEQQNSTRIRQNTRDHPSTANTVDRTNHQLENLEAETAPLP

[3] = In vitro metabolic disposition in monkey microsomes; assay type: in vitro ADME; settings: monkey pooled liver microsomes, 0-45 minutes
Description: (§2) Compound HCV-3 also was subjected to in vitro metabolic disposition in mouse, rat, monkey and human microsomes. The test compound was incubated with pooled liver microsomes, since […] stability in liver microsomes can be predictive of drug stability in vivo. Aliquots were taken at 0, 5, 15, 30 and 45 minutes and quenched immediately. The samples were extracted and analyzed by LC-MS/MS.

CYP2C8 = biological target: T4, CYP2C8 (Homo sapiens, UniProt P10632); test: CYP inhibition, CYP2C8
T4 sequence (P10632 1-490): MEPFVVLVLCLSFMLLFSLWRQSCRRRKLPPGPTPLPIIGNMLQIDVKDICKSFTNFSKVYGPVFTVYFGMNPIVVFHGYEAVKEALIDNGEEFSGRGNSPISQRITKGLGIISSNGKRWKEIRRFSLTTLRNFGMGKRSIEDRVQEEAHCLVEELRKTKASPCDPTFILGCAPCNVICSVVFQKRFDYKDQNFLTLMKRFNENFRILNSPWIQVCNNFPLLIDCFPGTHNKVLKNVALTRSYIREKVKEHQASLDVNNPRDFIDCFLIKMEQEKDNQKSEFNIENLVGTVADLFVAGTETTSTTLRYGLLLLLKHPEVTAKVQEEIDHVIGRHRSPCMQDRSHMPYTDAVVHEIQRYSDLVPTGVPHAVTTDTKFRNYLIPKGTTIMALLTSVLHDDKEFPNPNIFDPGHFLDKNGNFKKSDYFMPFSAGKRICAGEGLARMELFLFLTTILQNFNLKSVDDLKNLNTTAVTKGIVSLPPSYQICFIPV

[4] = In vitro metabolic disposition in human microsomes; assay type: in vitro ADME; settings: human pooled liver microsomes, 0-45 minutes
Description: as §2

μ (MOP) [5] = biological target: T3, μ (MOP); test: Cellular functional assay, antagonist effect, μ (MOP); assay type: cell-based; settings: antagonist mode
CYP2C9 = CYP2C9 (Homo sapiens, UniProt P11712); test: CYP inhibition, CYP2C9
CYP2C9, sequence (P11712 whole entry): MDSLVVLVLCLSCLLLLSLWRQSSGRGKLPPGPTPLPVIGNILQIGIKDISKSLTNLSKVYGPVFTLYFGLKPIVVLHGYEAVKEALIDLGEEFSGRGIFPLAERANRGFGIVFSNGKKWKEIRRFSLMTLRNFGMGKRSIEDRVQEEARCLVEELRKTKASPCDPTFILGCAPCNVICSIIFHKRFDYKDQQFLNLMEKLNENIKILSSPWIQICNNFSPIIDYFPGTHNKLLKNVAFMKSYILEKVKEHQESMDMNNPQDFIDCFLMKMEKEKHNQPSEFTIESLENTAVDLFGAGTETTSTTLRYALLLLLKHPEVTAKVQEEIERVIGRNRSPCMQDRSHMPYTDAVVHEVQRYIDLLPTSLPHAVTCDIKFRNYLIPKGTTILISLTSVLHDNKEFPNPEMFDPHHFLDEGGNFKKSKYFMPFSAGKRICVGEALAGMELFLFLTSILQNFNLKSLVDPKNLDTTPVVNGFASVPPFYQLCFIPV

α2B(h) [6] = biological target: T5, α2B(h) (Homo sapiens, UniProt P18089); test: Cellular functional assay, antagonist effect, α2B; assay type: cell-based; settings: antagonist mode
T5 sequence (P18089 1-450): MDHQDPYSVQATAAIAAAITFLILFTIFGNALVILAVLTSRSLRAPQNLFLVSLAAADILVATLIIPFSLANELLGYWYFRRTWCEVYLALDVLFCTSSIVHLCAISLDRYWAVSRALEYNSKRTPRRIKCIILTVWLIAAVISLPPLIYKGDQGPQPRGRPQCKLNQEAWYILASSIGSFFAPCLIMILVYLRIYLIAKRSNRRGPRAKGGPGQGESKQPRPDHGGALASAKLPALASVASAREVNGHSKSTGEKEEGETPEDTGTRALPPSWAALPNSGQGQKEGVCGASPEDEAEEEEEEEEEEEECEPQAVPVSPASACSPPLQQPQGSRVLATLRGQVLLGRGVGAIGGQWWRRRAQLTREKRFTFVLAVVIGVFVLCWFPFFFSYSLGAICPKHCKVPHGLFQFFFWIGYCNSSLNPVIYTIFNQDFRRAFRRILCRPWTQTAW

α2B(h) [7] = biological target: T5, α2B(h); test: Cellular functional assay, agonist effect, α2B; assay type: cell-based
CYP2B6 = biological target: T6, CYP2B6 (Homo sapiens, UniProt P20813); test: CYP inhibition, CYP2B6
T6 sequence (P20813 1-491): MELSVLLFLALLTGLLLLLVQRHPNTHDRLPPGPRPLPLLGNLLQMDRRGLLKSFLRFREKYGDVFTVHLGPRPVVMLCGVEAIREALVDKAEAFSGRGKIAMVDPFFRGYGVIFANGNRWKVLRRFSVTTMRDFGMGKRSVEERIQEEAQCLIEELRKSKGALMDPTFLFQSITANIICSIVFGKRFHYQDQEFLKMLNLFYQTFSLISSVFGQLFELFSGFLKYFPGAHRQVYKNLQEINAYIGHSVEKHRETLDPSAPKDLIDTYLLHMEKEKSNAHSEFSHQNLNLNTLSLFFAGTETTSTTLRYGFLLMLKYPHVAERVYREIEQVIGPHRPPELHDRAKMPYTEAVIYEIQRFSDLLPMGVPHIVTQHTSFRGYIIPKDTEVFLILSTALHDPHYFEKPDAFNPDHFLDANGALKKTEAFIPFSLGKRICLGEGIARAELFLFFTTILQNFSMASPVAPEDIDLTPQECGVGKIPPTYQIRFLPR

[8] = In vitro metabolic disposition in rat microsomes; assay type: in vitro ADME; settings: rat pooled liver microsomes, 0-45 minutes
Description: as §2

κ (KOP) [9] = biological target: T1, κ (KOP); test: Cellular functional assay, agonist effect, κ (KOP); assay type: cell-based; settings: agonist mode
hERG = hERG (Homo sapiens, UniProt Q12809); test: hERG inhibition; assay type: cell-based
hERG, sequence (Q12809 whole entry): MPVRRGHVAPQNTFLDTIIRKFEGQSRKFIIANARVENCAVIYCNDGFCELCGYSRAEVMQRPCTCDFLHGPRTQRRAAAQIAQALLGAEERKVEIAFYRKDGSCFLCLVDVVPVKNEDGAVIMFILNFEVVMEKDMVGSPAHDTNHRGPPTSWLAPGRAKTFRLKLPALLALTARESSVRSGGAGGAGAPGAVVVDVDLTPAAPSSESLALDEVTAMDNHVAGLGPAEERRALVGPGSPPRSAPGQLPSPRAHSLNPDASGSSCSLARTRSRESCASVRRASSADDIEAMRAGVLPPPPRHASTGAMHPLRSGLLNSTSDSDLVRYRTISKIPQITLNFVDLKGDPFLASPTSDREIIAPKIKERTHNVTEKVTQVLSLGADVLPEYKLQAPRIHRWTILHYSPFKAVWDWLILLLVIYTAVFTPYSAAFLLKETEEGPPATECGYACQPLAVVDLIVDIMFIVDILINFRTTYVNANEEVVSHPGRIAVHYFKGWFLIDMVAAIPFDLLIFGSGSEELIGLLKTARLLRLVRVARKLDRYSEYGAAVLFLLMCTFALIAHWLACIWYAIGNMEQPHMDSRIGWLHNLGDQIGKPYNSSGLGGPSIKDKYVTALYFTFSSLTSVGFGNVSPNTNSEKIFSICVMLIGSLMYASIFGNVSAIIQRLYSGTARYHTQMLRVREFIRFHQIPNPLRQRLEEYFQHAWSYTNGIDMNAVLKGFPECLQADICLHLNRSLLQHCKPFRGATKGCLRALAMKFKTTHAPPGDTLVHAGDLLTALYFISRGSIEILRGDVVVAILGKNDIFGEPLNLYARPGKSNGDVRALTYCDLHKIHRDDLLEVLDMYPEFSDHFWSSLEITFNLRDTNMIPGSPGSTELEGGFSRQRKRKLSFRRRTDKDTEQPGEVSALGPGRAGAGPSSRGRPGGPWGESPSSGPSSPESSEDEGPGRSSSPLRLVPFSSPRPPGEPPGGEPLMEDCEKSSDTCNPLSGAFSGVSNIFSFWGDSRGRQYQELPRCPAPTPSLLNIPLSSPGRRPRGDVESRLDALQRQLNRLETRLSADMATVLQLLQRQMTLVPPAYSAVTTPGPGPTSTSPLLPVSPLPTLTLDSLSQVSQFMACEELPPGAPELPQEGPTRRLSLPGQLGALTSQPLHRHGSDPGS
Description: Compound HCV-3 also was tested for hERG inhibition. Over the concentration range tested (up to 25 micromolar) no dose-response was obtained. […] The control compounds behaved as expected in the assay.

CYP2C19 = CYP2C19 (Homo sapiens, UniProt P33261); test: CYP inhibition, CYP2C19
CYP2C19, sequence (P33261 whole entry): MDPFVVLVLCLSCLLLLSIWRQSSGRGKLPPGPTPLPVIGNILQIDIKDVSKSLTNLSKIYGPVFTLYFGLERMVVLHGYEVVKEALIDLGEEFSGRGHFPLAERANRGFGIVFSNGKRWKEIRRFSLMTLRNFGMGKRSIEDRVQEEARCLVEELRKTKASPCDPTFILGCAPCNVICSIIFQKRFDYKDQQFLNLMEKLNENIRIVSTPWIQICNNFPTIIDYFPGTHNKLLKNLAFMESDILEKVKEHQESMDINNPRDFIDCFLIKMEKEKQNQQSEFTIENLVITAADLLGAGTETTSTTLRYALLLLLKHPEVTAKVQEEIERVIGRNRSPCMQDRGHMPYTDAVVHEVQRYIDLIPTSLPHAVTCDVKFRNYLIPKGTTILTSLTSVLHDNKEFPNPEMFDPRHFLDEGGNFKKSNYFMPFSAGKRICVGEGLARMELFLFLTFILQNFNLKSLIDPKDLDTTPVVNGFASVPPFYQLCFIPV

[10] = In vitro metabolic disposition in mouse microsomes; assay type: in vitro ADME; settings: mouse pooled liver microsomes, 0-45 minutes
Description: as §2

CYP3A4 = CYP3A4 (Homo sapiens, UniProt P08684); test: CYP inhibition, CYP3A4; settings: with either substrate
CYP3A4, sequence (P08684 whole entry): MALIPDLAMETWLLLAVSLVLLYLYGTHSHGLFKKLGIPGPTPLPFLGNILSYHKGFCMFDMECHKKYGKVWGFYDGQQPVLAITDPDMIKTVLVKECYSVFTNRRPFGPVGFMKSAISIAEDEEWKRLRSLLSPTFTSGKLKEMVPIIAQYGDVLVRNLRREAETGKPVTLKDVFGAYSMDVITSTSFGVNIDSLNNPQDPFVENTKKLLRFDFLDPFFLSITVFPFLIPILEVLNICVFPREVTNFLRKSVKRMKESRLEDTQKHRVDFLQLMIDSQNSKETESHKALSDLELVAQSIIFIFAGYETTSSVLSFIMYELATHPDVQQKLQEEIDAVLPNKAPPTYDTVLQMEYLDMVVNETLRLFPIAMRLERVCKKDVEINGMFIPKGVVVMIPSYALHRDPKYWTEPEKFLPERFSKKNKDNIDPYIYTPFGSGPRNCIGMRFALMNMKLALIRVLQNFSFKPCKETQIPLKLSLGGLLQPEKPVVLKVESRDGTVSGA

P-gp = test: MDCK permeability assay; settings: dog, MDCK

T1 sequence (P34975 whole entry): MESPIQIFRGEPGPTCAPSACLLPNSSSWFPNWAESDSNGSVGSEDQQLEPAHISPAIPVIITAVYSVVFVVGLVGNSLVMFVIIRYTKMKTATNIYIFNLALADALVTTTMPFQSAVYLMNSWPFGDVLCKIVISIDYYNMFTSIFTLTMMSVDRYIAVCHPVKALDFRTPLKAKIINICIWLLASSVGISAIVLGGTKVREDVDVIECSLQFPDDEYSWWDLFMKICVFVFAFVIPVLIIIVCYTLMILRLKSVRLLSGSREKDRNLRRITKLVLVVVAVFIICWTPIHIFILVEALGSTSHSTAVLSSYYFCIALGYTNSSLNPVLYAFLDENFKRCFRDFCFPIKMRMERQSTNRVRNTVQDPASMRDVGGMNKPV

COc1cc2nc(N3CCN(C(=O)c4ccco4)CC3)nc(N)c2cc1OC [prazosin, reference compound]
efflux (control compound) (MDCK; in the absence of Cyclosporin A): showing efflux
efflux (control compound) (MDCK; in the presence of Cyclosporin A): inhibited

Oc1ccc2c3c1O[C@H]1c4[nH]c5c(c4C[C@@]4(O)[C@@H](C2)N(CC2CC2)CC[C@]314)C[C@@]1(O)[C@H]2Cc3ccc(O)c4c3[C@@]1(CCN2CC1CC1)[C@H]5O4 [nor-BNI, reference compound]
Kb (κ (KOP) [1]; reference antagonist, read-out: Reference Kb Ref): 0.072 nM

CCC(=O)NC1CCN(CCc2ccccc2)CC1 [HCV-3, N-(1-phenethylpiperidin-4-yl)propionamide]
CYP1A2 inhibition (CYP1A2): No inhibition
CYP2D6 inhibitor category (CYP2D6): moderate CYP2D6 inhibitor
IC50 (CYP2D6): 4200 nM
genotoxicity (TA 100): negative
genotoxicity (TA98): negative
% of Control Agonist Response, 1st (μ (MOP) [2]; 1.0E−05, first replicate): 28.1%
% of Control Agonist Response, Mean (μ (MOP) [2]; 1.0E−05, mean): 33.5%
% of Control Agonist Response, 2nd (μ (MOP) [2]; 1.0E−05, second replicate): 38.9%
% of Control Agonist Response (μ (MOP) [2]; test concentration 1.0E−05): 33.5%
clearance [3]: low clearance
CYP2C8 inhibition (CYP2C8): No inhibition
clearance [4]: low clearance
Agonist Response (% of Control), 1st (μ (MOP) [5]; 1.0E−05, first replicate): 100.1 % of Control
Agonist Response (% of Control), Mean (μ (MOP) [5]; 1.0E−05, mean): 101.0 % of Control
Agonist Response (% of Control), 2nd (μ (MOP) [5]; 1.0E−05, second replicate): 101.8 % of Control
% Inhibition of Control Agonist Response (μ (MOP) [5]; test concentration 1.0E−05): −1%
Agonist Response (% of Control), 1st (κ (KOP) [1]; antagonist mode, 1.0E−05, first replicate): 112.4 % of Control
Agonist Response (% of Control), Mean (κ (KOP) [1]; antagonist mode, 1.0E−05, mean): 94.4 % of Control
Agonist Response (% of Control), 2nd (κ (KOP) [1]; antagonist mode, 1.0E−05, second replicate): 76.5 % of Control
% Inhibition of Control Agonist Response (κ (KOP) [1]; antagonist mode, test concentration 1.0E−05): 6%
CYP2C9 inhibition (CYP2C9): No inhibition
Agonist Response (% of Control), 1st (α2B(h) [6]; 1.0E−05, first replicate): 116.8 % of Control
Agonist Response (% of Control), Mean (α2B(h) [6]; 1.0E−05, mean): 127.8 % of Control
Agonist Response (% of Control), 2nd (α2B(h) [6]; 1.0E−05, second replicate): 138.7 % of Control
% Inhibition of Control Agonist Response (α2B(h) [6]; test concentration 1.0E−05): −28%
% of Control Agonist Response, 1st (α2B(h) [7]; agonist mode, 1.0E−05, first replicate): 9.2%
% of Control Agonist Response, Mean (α2B(h) [7]; agonist mode, 1.0E−05, mean): 7.1%
% of Control Agonist Response, 2nd (α2B(h) [7]; agonist mode, 1.0E−05, second replicate): 5.1%
% of Control Agonist Response (α2B(h) [7]; agonist mode, test concentration 1.0E−05): 7.1%
CYP2B6 inhibition (CYP2B6): No inhibition
clearance [8]: moderate clearance
% of Control Agonist Response, 1st (κ (KOP) [9]; 1.0E−05, first replicate): −10.3%
% of Control Agonist Response, Mean (κ (KOP) [9]; 1.0E−05, mean): −4.2%
% of Control Agonist Response, 2nd (κ (KOP) [9]; 1.0E−05, second replicate): 1.8%
% of Control Agonist Response (κ (KOP) [9]; test concentration 1.0E−05): −4.2%
hERG inhibition category (hERG): weak or no hERG inhibition
IC50 (hERG; concentration range tested up to 25 micromolar): > 25000 nM
inhibition at 25 micromolar (hERG; human, at the top concentration of 25 micromolar): 32.5%
CYP2C19 inhibitor category (CYP2C19): weak CYP2C19 inhibitor
inhibition at 25 micromolar (CYP2C19): 36.4%
clearance [10]: low clearance
CYP3A4 inhibition (CYP3A4): No inhibition
permeability (MDCK; MDCK assay): highly permeable
efflux ratio (P-gp): 1.48

Cc1cccc([C@H](C)c2c[nH]cn2)c1C [dexmedetc, reference compound]
EC50 (α2B(h) [7]; reference agonist, read-out: Reference EC50 Ref): 13 nM

From patent US10617681B2, “1-arylalkyl-4-acylaminopiperidine compounds” (ARIZONA BOARD OF REGENTS ON BEHALF OF THE UNIVERSITY OF …, priority 2014, dated 2020)
